Source: patent US6858741B2, “Alkyl-dihalogenated phenyl-substituted ketoenols useful as pesticides and herbicides” (Bayer Aktiengesellschaft, priority 1995, dated 2005)

Assays:
Format in all cases: in vivo
[1] = tested on: green rice leafhopper (Nephotettix cincticeps); assay: Nephotettix test; conditions: after 6 days; active compound concentration 0.1%; dipped rice seedlings
Experimental: [table] To produce a suitable preparation of active compound, 1 part by weight of active compound is mixed with the stated amount of solvent and the stated amount of emulsifier, and the concentrate is diluted with water to the desired concentration. Rice seedlings (Oryza sativa) are treated by being dipped into the preparation of active compound of the desired concentration and are infested with the green rice leafhopper (Nephotettix cincticeps) while the seedlings are still moist. After the specified period of time, the destruction in % is determined. 100% means that all the leafhoppers have been killed; 0% means that none of the leafhoppers have been killed.

test plants = assay: Pre-emergence test/greenhouse; conditions: greenhouse, 250 g/ha, rated after three weeks vs untreated control, 0%=no action, 100%=total destruction
Experimental: [table] To produce a suitable preparation of active compound, 1 part by weight of active compound is mixed with the stated amount of solvent, the stated amount of emulsifier is added and the concentrate is diluted with water to the desired concentration. Seeds of the test plants are sown in normal soil and, after 24 hours, watered with the preparation of the active compound. It is expedient to keep constant the amount of water per unit area The concentration of the active compound in the preparation is of no importance, only the amount of active compound applied per unit area being decisive. After three weeks, the degree of damage to the plants is rated in % damage in comparison to the development of the untreated control. The figures denote: • 0%=no action (like untreated control) 100%=total destruction [table]

[2] = tested on: mustard beetle larvae (Phaedon cochleariae); assay: Phaedon larvae test; conditions: after 7 days; active compound concentration 0.1%; dipped cabbage leaves
Experimental: (§1) [table] To produce a suitable preparation of active compound, 1 part by weight of active compound is mixed with the stated amount of solvent and the stated amount of emulsifier, and the concentrate is diluted with water to the desired concentration. Cabbage leaves (Brassica oleracea) are treated by being dipped into the preparation of the active compound of the desired concentration and are infested with mustard beetle larvae (Phaedon cochleariae) while the leaves are still moist. After the specified period of time, the destruction in % is determined. 100% means that all the beetle larvae have been killed; 0% means that none of the beetle larvae have been killed.

[3] = tested on: caterpillars of the diamond-back moth (Plutella maculipennis); assay: Plutella test; conditions: after 7 days; active compound concentration 0.1%; dipped cabbage leaves
Experimental: as §1, with “preparation of active compound” for “preparation of the active compound”, “infested with caterpillars of the diamond-back moth (Plutella maculipennis) while the” for “infested with mustard beetle larvae (Phaedon cochleariae) while the”, “all the caterpillars have been” for “all the beetle larvae have been”, “of the caterpillars have been” for “of the beetle larvae have been”

[4] = tested on: greenhouse red spider mite or two-spotted spider-mite (Tetranychus urticae); assay: Tetranychus test (OP-resistant/immersion treatment); conditions: after 13 days; active compound concentration 0.1%; immersion treatment of bean plants
Experimental: [table] To produce a suitable preparation of active compound, 1 part by weight of active compound is mixed with the stated amount of solvent and the stated amount of emulsifier, and the concentrate is diluted with water to the desired concentrations. Bean plants (Phaseolus vulgaris) which are severely infested with all development stages of the greenhouse red spider mite or two-spotted spider-mite (Tetranychus urticae) are immersed in a preparation of active compound of the desired concentration. After the specified period of time, the destruction in % is determined. 100% means that all the spider mites have been killed; 0% means that none of the spider mites have been killed.

Row | Structure (SMILES) | destruction [1] [%] | degree of damage, Alopecurus myosuroides (test plants) [%] | degree of damage, Avena fatua (test plants) [%] | degree of damage, Beta vulgaris (test plants) [%] | degree of damage, Setaria viridis (test plants) [%] | destruction [2] [%] | destruction [3] [%] | degree of damage, Sinapis arvensis (test plants) [%] | activity (destruction) [4] [%] | degree of damage, Amaranthus (test plants) [%]
1 | Cc1cc(Cl)cc(Cl)c1C1=C(O)C2(CCCC(C)C2)NC1=O (single isomer, unassigned) [Example I-1-a-2] | 100 | 100 | 90 | 0 | 100 | 100 | – | – | – | –
2 | Cc1cc(Cl)cc(Cl)c1C1=C(O)C2(CCC(C)CC2)NC1=O (single isomer, unassigned) [Example I-1-a-4] | 100 | 100 | 100 | 0 | 100 | – | 100 | 95 | – | –
3 | Cc1cc(Cl)c(C2=C(O)C3(CCCC(C)C3)NC2=O)c(Cl)c1 (single isomer, unassigned) [Example I-1-a-8] | 100 | 100 | 40 | – | 100 | 100 | – | 100 | – | –
4 | CC(=O)OC1=C(c2c(C)cc(Cl)cc2Cl)C(=O)NC12CCCC(C)C2 (single isomer, unassigned) [Example I-1-b-2] | – | 100 | 80 | 0 | 100 | – | 100 | 70 | – | –
5 | CCOCC(=O)OC1=C(c2c(C)cc(Cl)cc2Cl)C(=O)NC12CCCC(C)C2 (single isomer, unassigned) [Example I-1-b-4] | – | 95 | 80 | 0 | 100 | – | – | 80 | – | –
6 | CC(=O)OC1=C(c2c(C)cc(Cl)cc2Cl)C(=O)NC12CCC(C)CC2 (single isomer, unassigned) [Example I-1-b-10] | 100 | 100 | 100 | 20 | 100 | – | – | 100 | 100 | –
7 | Cc1cc(Cl)cc(Cl)c1C1=C(OC(=O)C(C)C)C2(CCC(C)CC2)NC1=O (single isomer, unassigned) [Example I-1-b-11] | – | 95 | 40 | 30 | 100 | – | – | 90 | – | –
8 | Cc1cc(Cl)cc(Cl)c1C1=C(OC(=O)c2ccc(Cl)cc2)C2(CCC(C)CC2)NC1=O (single isomer, unassigned) [Example I-1-b-12] | – | 100 | 80 | 20 | 100 | – | – | 95 | – | –
9 | COCC(C)C(=O)OC1=C(c2c(C)cc(Cl)cc2Cl)C(=O)NC12CCC(C)CC2 (single isomer, unassigned) [Example I-1-b-13] | – | 100 | 80 | 30 | 100 | – | – | 90 | – | –
10 | Cc1cc(Cl)c(C2=C(OC(=O)C(C)C)C3(CCCC(C)C3)NC2=O)c(Cl)c1 (single isomer, unassigned) [Example I-1-b-20] | – | 95 | – | 30 | 90 | – | – | 80 | – | –
11 | CCOC(=O)OC1=C(c2c(C)cc(Cl)cc2Cl)C(=O)NC12CCCC(C)C2 (single isomer, unassigned) [Example I-1-c-2] | – | – | – | – | – | – | 100 | – | – | –
12 | CCOC(=O)OC1=C(c2c(Cl)cc(C)cc2Cl)C(=O)NC12CCC(C)CC2 (single isomer, unassigned) [Example I-1-c-6] | – | 100 | 100 | – | 100 | – | – | 95 | – | –
13 | CCOC(=O)OC1=C(c2c(Cl)cc(C)cc2Cl)C(=O)NC12CCCC(C)C2 (single isomer, unassigned) [Example I-1-c-7] | – | 100 | 80 | 0 | 100 | – | – | 80 | – | –
14 | Cc1cc(Cl)cc(Cl)c1C1=C(OC(=O)OCC(C)C)C2(CCC(C)CC2)NC1=O (single isomer, unassigned) [Example I-1-c-13] | 100 | – | – | – | – | – | – | – | – | –
15 | Cc1cc(Cl)cc(Cl)c1C1=C(O)C2(CCCCC2)NC1=O [Example I-1-a-3] | 100 | 100 | – | 0 | 100 | – | 100 | 80 | – | –
16 | Cc1cc(Cl)c(C2=C(O)C3(CCCCC3)NC2=O)c(Cl)c1 [Example I-1-a-9] | 100 | – | – | – | – | 100 | – | – | – | –
17 | Cc1cc(Cl)c(C2=C(O)C(C)(C(C)C)NC2=O)c(Cl)c1 (centres unmarked) [Example I-1-a-11] | 100 | – | – | – | – | 100 | – | – | – | –
18 | Cc1cc(Cl)cc(Cl)c1C1=C(OC(=O)C(C)C)C2(CCCCC2)NC1=O [Example I-1-b-8] | – | 95 | 50 | 0 | 100 | – | – | 100 | – | –
19 | CCOC(=O)OC1=C(c2c(C)cc(Cl)cc2Cl)C(=O)NC12CCCCC2 [Example I-1-c-3] | 100 | 80 | 80 | 30 | 100 | – | – | 100 | – | –
20 | CCC1(C)SC(=O)C(c2c(C)cc(Cl)cc2Cl)=C1O (centres unmarked) [Example I-3-a-1] | – | – | – | – | – | 100 | 100 | – | – | –
21 | Cc1cc(Cl)cc(Cl)c1C1=C(O)C2(CCCCC2)SC1=O [Example I-3-a-3] | – | – | – | – | – | 100 | 100 | – | – | –
22 | Cc1cc(Cl)c(C2=C(OC(=O)OCC(C)C)C3(CCCCC3)SC2=O)c(Cl)c1 [Example I-3-c-1] | – | – | – | 0 | – | – | – | – | 100 | 70
23 | Cc1cc(Cl)c(-c2c(O)c(C)c(C3CCCC3)oc2=O)c(Cl)c1 [I-5-a-7] | – | 80 | – | 0 | – | – | – | 95 | – | –
